Earlier results as cited in patent US7214684B2, “Methods for the treatment of allergic rhinitis” (Sepracor Inc., priority 1994, dated 2007).

Assays:
[1] = biological target: H-2 histamine receptor (Homo sapiens, UniProt P25021); conditions: H-2 receptor-mediated response
[2] = test system: melanoma and fibrosarcoma tumors; conditions: Brandes et al. 1994

Chain of H-2 histamine receptor (P25021 whole entry): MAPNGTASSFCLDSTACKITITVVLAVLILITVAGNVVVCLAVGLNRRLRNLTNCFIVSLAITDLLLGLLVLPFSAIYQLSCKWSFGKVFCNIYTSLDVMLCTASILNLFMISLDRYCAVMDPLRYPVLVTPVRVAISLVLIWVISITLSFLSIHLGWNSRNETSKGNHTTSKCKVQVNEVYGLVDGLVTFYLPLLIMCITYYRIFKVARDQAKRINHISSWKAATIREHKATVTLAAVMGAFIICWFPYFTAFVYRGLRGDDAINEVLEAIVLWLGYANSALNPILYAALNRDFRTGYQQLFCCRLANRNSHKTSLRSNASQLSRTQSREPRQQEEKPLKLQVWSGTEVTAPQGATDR

SMILES	effect on the chronotropic effect of histamine on atria [1]	association with tumor growth [2]
CCOC(=O)N1CCC(=C2c3ccc(Cl)cc3CCc3cccnc32)CC1 [Loratadine]	nor does it alter	associated with growth of both melanoma and fibrosarcoma tumors
COc1ccc(CCN2CCC(Nc3nc4ccccc4n3Cc3ccc(F)cc3)CC2)cc1 [astemizole]	–	associated with growth of both melanoma and fibrosarcoma tumors
